# Legend:
# BALB/c mice = assay: Suppression of prolonged contact hypersensitivity (P-CHS), oxazolone-induced ear swelling; assay type: in vivo; details: for sequence from high to low effectiveness, suppressive effect on P-CHS response (ear swelling): BALB/c mice, oxazolone, topical twice daily, averaged from 2-3 experiments, compared to placebo (100% ear swelling), FIG. 3; for immunosuppressive, e.g. anti-inflammatory properties (efficacy): conclusion from P-CHS in BALB/c mice, topical application
# Procedure: Suppression of prolonged contact hypersensitivity (P-CHS) by ethyl imidazole-4-acetate in BALB/c mice.
# Ethyl imidazole-4-acetate was dissolved in ethanol/water 1:1 in a concentration of 5%. The topical application of ethanol/water 1:1 alone served as full-response control. Ethanol/water test solutions were topically applied with a pipette in aliquots of 20 μL/ear.
# Mice were sensitized with 10 μl 1% oxazolone in acetone on […] in all experiments on the outside of both ears. On day 0 mice were challenged with 10 μl 0.5% oxazolone in acetone on both ears. Repeated elicitations were applied on day 2, 4, 7, 9. Applied oxazolone concentrations in acetone were 0.5%, 0.25%, 0.25%, 0.25%, respectively. From day 1 up to one day before the final day of the experiment, twice-daily doses of test solutions were topically given at approximately 11 AM and […]. Duplicate ear thickness measurements were made on day 0, 1, 3, 5, 8, 10 and 11 prior to any daily topical application.
# The use of mice was allowed by the Committee of Experimental Animal handling of the Academic Medical Center Amsterdam. Female BALB/c mice (8-10 weeks of age) were purchased from Charles River (L′Arbresle, France) and kept in light, humidity and temperature-controlled rooms in the animal facility, 1-2 weeks before the experiment. They were fed ad libitum with water and CRM-E food van Special Diets services (SDS, Witham, Essex, UK).
# Data points, obtained with test compound administration, were compared to the data, obtained with vehicle (ethanol/water 1:1) administration and were statistically processed using Welch's unpaired t-test.
# [1] = tested on: IL-10 production in whole blood; assay: Effect of imidazole-derivates on the production of IL-10 in whole blood following LPS stimulation; assay type: cell-based; details: LPS stimulation (10 ng/ml), FIG. 4; for IL-10 production: 10−^4 Mol/l in whole blood
# Text: Effect of imidazole-derivates on the production of IL-10
# IL-10 is a cytokine that dims inflammatory immune responses. […] These findings in vitro have larger significance in a complete test system as whole blood, employed here, than in a monoculture test system (FIG. 4).
# FIG. 4. Effect of imidazole-derivates on the production of IL-10 in whole blood
# mice = details: Kammeyer et al. 2004, Norval et al. 1995, Noonan and De Fabo 1992; cited from earlier work
Structure (SMILES),"sequence from high to low effectiveness, suppressive effect on P-CHS response (ear swelling) (BALB/c mice)","IL-10 production, positive control compared with the imidazole-derivates ([1]; whole blood)","immunosuppressive, e.g. anti-inflammatory properties (efficacy) (BALB/c mice)",IL-10 production [1],contact hypersensitivity (CHS) response (mice)
"O=C([O-])c1c[nH]cn1.[Na+] [imidazole-4-carboxylic acid, imidazole-4-carboxylic acid, sodium salt]",imidazole-4-acetic acid (ImAc)=imidazole-4-carboxylic acid,–,–,–,–
NCCc1c[nH]cn1 [Histamine],–,stronger effect on IL-10 production than the imidazole-derivates,–,–,–
C[C@]12C=CC(=O)C=C1CC[C@@H]1[C@@H]2[C@@H](O)C[C@@]2(C)[C@H]1CC[C@]2(O)C(=O)CO [prednisolone],prednisolone>ethyl imidazole-4-acetate (Et-ImAc),–,classical strong suppressant,–,–
"O=C(O)Cc1c[nH]cn1 [ImAc, Imidazole-4-acetic acid]",ethyl imidazole-4-acetate (Et-ImAc)>imidazole-4-acetic acid (ImAc)=imidazole-4-carboxylic acid,–,weak to moderate immunosuppressant,upregulation of IL-10,suppress the contact hypersensitivity (CHS) response in mice
"CCOC(=O)Cc1c[nH]cn1 [Et-ImAc, ethyl imidazole-4-acetate]",prednisolone>ethyl imidazole-4-acetate (Et-ImAc)>imidazole-4-acetic acid (ImAc),–,stronger than that of ImAc,upregulation of IL-10,–
"O=C(O)c1c[nH]cn1 [ImCOOH, imidazole-4-carboxylic acid]",–,–,–,upregulation of IL-10,–
